For series [1] the following is noted: cited from earlier work.
The conditions of series [2]: in vivo; cited from earlier work.
In series [3] the test system is brush border membrane bounded enzymes. Kind of series: Enzyme inhibition study: enzymatic degradation of insulin versus time. The series is classed as biochemical. The following applies: 5 mg/ml; insulin 1 mg/ml; up to 2 hours.
Description: Brush border membrane bounded enzymes were used to simulate a contacting membrane at the bottom of a donor compartment, wherein the insulin-loaded medium (Krebs-Ringer buffer) in the donor compartment was used as the starting material at time zero. Three elements were used in this enzyme inhibition study to assess the enzymatic degradation of insulin versus time by brush border membrane bounded enzymes.
Series [4] has as its system diabetic rats. Kind of series: Hypoglycemic effect in diabetic rats (Example no. 10). It is filed as in vivo, Wistar male rats. The method, then: In the in vivo study, rats were injected with streptozotocin (STZ 75 mg/kg intraperitoneal) in 0.01M citrate buffer (pH 4.3) to induce diabetes. The blood from the rat's tail was analyzed with a commercially available glucometer for blood glucose. The blood glucose level on Wistar male rats at no fasting (n=5) was measured at 107.2±8.1 mg/dL for normal rats while the blood glucose level was at 469.7±34.2 mg/dL for diabetic rats. In the animal study, diabetic rats were fasting for 12 hours and subjected to four different conditions: (a) oral deionized water (DI) administration; (b) oral insulin administration at 30 U/kg; (c) oral insulin-loaded nanoparticles administration at 30 U/kg; and (d) subcutaneous (SC) insulin injection at 5 U/kg as positive control. The blood glucose concentration from rat's tail was measured over the time in the study.
It is illustrative that substantially all insulin from the oral administration route has been decomposed in rat stomach. As anticipated, the glucose decrease for the SC insulin injection route appears in rat blood in the very early time interval and starts to taper off after 3 hours in this exemplary study.
The most important observation of the study comes from the oral administration route with insulin-loaded nanoparticles. […]

The subject of series [5] is diabetic rats. Kind of series: Freeze-dried nanoparticles in enteric-coated capsule in diabetic rats (Example no. 19). It is filed as in vivo. The following applies: SC injection 5 U/kg. How it is done:
In the in vivo study, rats as prepared and conditioned according to Example no. 10 were used in this evaluation. […] The blood glucose concentration from rat's tail was measured over time.
As anticipated, the glucose decrease for the SC insulin injection method is evident in rat blood at a very early time interval starts to taper off after 2 hours, and ends at about 6 hours in this exemplary study. The most important observation of the study comes from the oral administration route with insulin-loaded lyophilized (namely, freeze-dried) nanoparticles. Nanoparticles of this example have an insulin LC at 4.4%, whereas nanoparticles from Example no. […] With the same amount of nanoparticles in both examples, the insulin-feeding ratio of Example no. 19 to Example no. 10 is about 1:3. In other words, the insulin fed to a rat in this study from nanoparticles is about ⅓ of the insulin from nanoparticles fed to rats in Example no. 10.
The blood glucose begins to decrease from the base line at about 3 hours after administration and sustains a lower glucose level for more than 10 hours into study. It implies that the current insulin-loaded nanoparticles may modulate the glucose level in animals in a sustained or prolonged effective mode. […]

The conditions of series [6]: insulin from bovine pancreas (Sigma-Aldrich); cited from earlier work.
The conditions of series [7]: 20° C.; cited from earlier work.

Consider 5 molecules from patent US8574544B1, “Pharmaceutical composition of nanoparticles” (GP Medical, Inc., priority 2005, dated 2013).

Where only a bound is given, the exact number is not on record here.

As for Drotrecogin alfa (activated), the “time to peak plasma levels” value in series [1] (i.v. dosage guidelines) is listed as “two”. The “time to complete clearance from plasma after termination of infusion” value in series [1] (i.v. infusion) is “two”.

Take “21^A-Gly-30^Ba-L-Arg-30^Bb-L-Arg-human insulin [Insulin glargine]”: the duration of activity entry in series [2] is listed as “up to 24 hours”.

Consider `O=C(O)CN(CCN(CC(=O)O)CC(=O)O)CCN(CC(=O)O)CC(=O)O` [DTPA, Diethylene triamine pentaacetic acid], for which the “protection of insulin activity or viable content against enzymatic degradation” value in series [3] is reported as “substantially protect or maintain the insulin activity or viable content”.

Take “insulin: model insulin from bovine pancreas (Sigma-Aldrich), given orally or by SC injection as controls”: the “time after which glucose decrease starts to taper off” value in series [4] (SC injection 5 U/kg) came to 3 h. The “glucose change as a percentage of base lines” value in series [4] (oral 30 U/kg, over 8 hours, n=5) is listed as “relatively constant”. In series [5], the “time after which glucose decrease starts to taper off” value was 2 h and the “time at which glucose decrease ends” value is “about 6 hours”. The activity in series [6] was not below 27 USP units/mg.

For the molecule `OC[C@H]1O[C@H](O[C@H]2O[C@H](CO)[C@@H](O)[C@H](O)[C@H]2O)[C@H](O)[C@@H](O)[C@@H]1O` [Trehalose, α-D-glucopyranosyl-(1→1)-α-D-glucopyranoside], the solubility in series [7] is listed as 68.9 g/100 g H2O.
